Consider 1 compound from article PMC11117691, “Flipping the GPCR Switch: Structure-Based Development of Selective Cannabinoid Receptor 2 Inverse Agonists” (ACS Central Science, 2024).

The target in test [1] is T1, hCB2R (Homo sapiens, UniProt P34972). The experiment in a line: BRET Gi-CASE G protein recruitment membrane assay. Format: biochemical. Details: expressed in transfected cells; host or cells: HEK293-TR cells, tetracycline-induced; membrane preparations. To be noted: hCB2R-HEK293 T-REx membranes, mean N = 3–4; read-out: pEC50 (Gi-CASE G protein recruitment) (converted). For orientation: BRET reads energy transfer from a luciferase to a nearby fluorophore.
T1 sequence (P34972 whole entry): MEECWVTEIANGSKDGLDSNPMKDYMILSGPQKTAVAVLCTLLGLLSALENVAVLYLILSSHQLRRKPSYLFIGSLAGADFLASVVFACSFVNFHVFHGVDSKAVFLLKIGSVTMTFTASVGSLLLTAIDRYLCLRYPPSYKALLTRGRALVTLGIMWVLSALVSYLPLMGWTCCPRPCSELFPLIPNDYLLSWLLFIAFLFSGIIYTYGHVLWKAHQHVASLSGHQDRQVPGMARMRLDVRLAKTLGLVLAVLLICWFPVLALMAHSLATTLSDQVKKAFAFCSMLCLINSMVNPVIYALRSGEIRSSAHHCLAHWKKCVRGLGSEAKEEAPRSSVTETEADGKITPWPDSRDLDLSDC

In test [2] the target is T1, hCB2R. The experiment in a line: TR-FRET saturation binding assay at CB2R. Set-up: expressed in transfected cells; host or cells: HEK293-TR cells, tetracycline-induced; membrane preparations. Conditions: TR-FRET, room temperature, HEK293 membranes of SNAP-Lumi4-Tb labeled hCB2R.
The target in test [3] is T1, hCB2R. Briefly: TR-FRET kinetic binding assay at CB2R. To be noted: for ΔΔG (Experimental): (R)-3 in comparison to (S)-3, from experimental Kd values. Details: expressed in transfected cells; host or cells: HEK293-TR cells, tetracycline-induced; membrane preparations. Background: In TR-FRET formats the signal depends on donor and acceptor labels being close together.
The target of test [4] is T1, hCB2R. In kind it is cell-based. Conditions: HEK293TR-CB2R-nLuc cells, representative of N = 3. Set-up: expressed in transfected cells; host or cells: HEK293TR cells, tetracycline-induced, live cells.
Experimental: HEPES. Following the wash, assay buffer containing 10 μM furimazine, 90 μL/well was added
to the wells. The plate was then incubated at 37 °C for 15 minutes to allow the nanoLuc substrate
furimazine to enter the cells. Three BRET cycles of 1-minute intervals were performed to assess
basal BRET levels, following which 10 μL of each compound, diluted in assay buffer was added
to the assay plate, which was read at 1-minute intervals for 30 minutes.
Buffer containing 10% DMSO (1% final) served as the vehicle control and
The assay buffer used to profile compounds in the CB 2R Gi-CASE system consisted of HBSS
containing 0.02% pluronic F127, 0.5% BSA and 5 mM HEPES. The reference compounds HU -
polypropylene plate. 0.5 µL of the reference and test compound serial dilutions was then added to
a white 384 well OptiplateTM (PerkinElmer) containing 39.5 μL of assay buff er. Finally, the CB 2R
membranes containing the G i-CASE biosensor were thawed and added into assay buffer containing
50 µM furimazine. Membranes (10 μL) were added to the assay plate at a final concentration of 5
µg/well. The total assay volume was 50 µL.
In test [5] the target is T1, hCB2R. The experiment in a line: Radioligand binding assay with [3H]-CP55,940. Set-up: expressed in transfected cells. Conditions: [3H]-CP55,940 competition, CHO-hCB2R membranes, 2 h at 30 °C. As to the method: For bindings experiments CHO cells stably expressing the human CB2R were used.14 […]
Radioligand binding assays were performed with [3H]-CP55,940 (Perkin Elmer, Austria) .
Membrane preparation was carried out according to previously published protocols.15 Briefly, competition binding experiments were carried out in duplicates at a final volume of 300 µL containing binding buffer (50 mM Tris-HCl, 2.5mM EDTA, 5 mM MgCl2, 0.5 mg/mL fatty acid-free BSA; pH 7.4), [3H]-CP55,940 (0.3 nM final concentration), compounds (semi logarithmically -spaced concentrations ranging from 0.1 nM to 10 µM) and membranes (2 µg/assay) in silanized glass vials. The reaction mixture was incubated for 2 h at 30 °C. Nonspecific binding was determined in the presence of AM630 (10 µM). Bound radioligand was separated from free radioligand by rapid filtration using 0.1% polyethlyenimine -presoaked GF/C glass fiber filter and a Skatron cell harvester. The radioactivity retained on the filters was measured by liquid scintillation. IC 50 and Ki values obtained from radioligand competition binding assays were determined by fitting the data to a three-parameter logistic Hill equation and applying the Cheng and Prusoff approximation. Data were normalized to specific binding of [3H]-CP55,940 in absence of compounds as maximum percentage (100%), which refers to an average of 4500 -5000 fmoles/mg protein for CB2R. […]

Test [6] concerns the target T1, hCB2R. The experiment in a line: cAMP HTRF assay in hCB2R-CHO cells. Format: cell-based. Details: expressed in transfected cells. From the text:
One of the canonical signaling pathways of CB2R involves association with Gαi/o proteins, which elicit reversible inhibition of adenylyl cyclase resulting in a decrease of cellular cAMP levels and suppression of protein kinase A activity.[67] Consequently, we have investigated the change in cAMP levels upon probe addition using homogeneous time-resolved fluorescence (HTRF) cAMP assay (Table 3).
Homogeneous Time-Resolved Fluorescence (HTRF) cAMP assay
The homogeneous time-resolved fluorescence (HTRF) cAMP assay was conducted according to the manufacturer’s protocol for the cAMP-Gs Dynamic kit (Cisbio). Briefly, the CHO cell line stably overexpressing CB2R was maintained in Ham’s F12 supplemented with 10% FBS, penicillin (100 U/mL, Gibco-ThermoFisher), streptomycin (100 μg/mL, Gibco-ThermoFisher) and G418 (400 μg/mL, ThermoFisher). For CB2R compounds test, the cells were harvested with Cell Dissociation Buffer, resuspended in F-12 K at 0.4×10^6 cells/mL, and dispensed into 384-well low volume plates at 2000 cells/5 μL per well. The cells were stimulated with compounds diluted in Stimulation Buffer (2.5 μL/well) for 15 min at room temperature, followed by the addition of forsklin (2.5 μL 25 μM). After 15 mins incubation, reactions were stopped by 5 μL/well cAMP-d2 conjugate working solution followed by 5 μL/well of anti-cAMP cryptate working solution. After incubation for 1 h at room temperature, the plates were read in a PerkinElmer Envision reader for Time-Resolved Förster Resonance Energy Transfer (TR-FRET) at 620 nm and 665 nm.
β–arrestin recruitment assay
SNAP-tagged human CB2R HEK293-TR cells were maintained in a humidified environment at 37 °C and 5% CO2 in Dulbecco’s modified Eagle’s medium (DMEM) with 10% fetal bovine serum (FBS) containing blasticidin (5 µg/mL; Invitrogen) and (Zeocin; 20 µg/mL; Invitrogen). For receptor-inducible expression, cells were seeded into t175 cm2 flasks, grown to 70% confluence and DMEM containing 1 µg/ml tetracycline added.
HEK293TR-CB2R-nLuc cells expressing a fluorescently labelled β-arrestin protein were maintained in a humidified environment at 37 °C and 5% CO2 in Dulbecco’s modified Eagle’s medium (DMEM) with 10% fetal bovine serum (FBS) containing blasticidin (5 µg/mL; Invitrogen), Zeocin (20 µg/mL; Invitrogen) and G418 (0.2 mg/mL; Invitrogen) and used to assess compound stimulated β-arrestin recruitment to the human CB2R. Cultured cells were harvested upon reaching 70% confluency and plated at a seeding density of 50,000 cells per well. The cells were grown for 48 h until they reached confluency and then stimulated with 1 μg/mL tetracycline for a further 48 h to induce CB2R expression. Cell culture media was then aspirated from the wells and the cells were washed with assay buffer, 100 μL/well HBSS containing 0.5% BSA and 5 mM

The mark [7] stands for this setting: 37 °C, hCB2R-HEK293 membranes, mean N = 3.

Turning to `C#CCCC(=O)NCC1=CC(c2c(OC)cc(C(C)(C)C(CCCCCN=[N+]=[N-])c3ccccc3)cc2OC)C2CC1C2(C)C` [(R)-3], the EC50 in test [1] was 60.3 nM; in test [6] (hCB2R-CHO cells, forskolin stimulated, mean N = 3), 33.1 nM. For the same compound, the Kd in test [2] was 0.42 nM; in test [3] (kinetic Kd, 37 °C, hCB2R-HEK293 membranes, mean N = 3), 0.26 nM. The koff in test [3] (setting [7]) was 2.29 10^–2 min^–1. Further, the kon in test [3] (setting [7]) is 88.7 10^6 M^–1 min^–1. The “τ (receptor residence time)” value in test [3] (setting [7]) was 43.7 min. Besides, the “ΔΔG (Experimental)” value in test [3] is -0.9 kcal/mol; in test [3] (listed as (R)–3) it was “–0.90 kcal mol-1”. In addition, in test [3] (ΔG exp = RT ln(Kd), T = 310 K, from experimental Kd values), the “ΔG (Experimental)” value is “–13.6 kcal mol-1”. Also, the “β-arrestin recruitment (BRET signal)” value in test [4] is “Baseline BRET signal was retained”. Also, the affinity in test [5], expressed as Ki, was 0.66 nM. In test [6] (normalized to agonist CP-55,940 response (100%) and basal level (0%)), the “Emax (cAMP)” value is reported as “–55%”.

The term Kd denotes the constant that tells how readily two partners part at equilibrium. Low readings indicate a tighter complex, high ones a looser complex. In general, Ki refers to a measure of affinity in units of concentration, obtained from inhibition or displacement. A lower Ki goes with tighter binding.
